The text below walks through data of patent EP3685668B1, “COMPOSITION COMPRISING ACIBENZOLAR-S-METHYL AS EFFECTIVE INGREDIENT FOR CONTROLLING BURSAPHELENCHUS XYLOPHILUS DISEASE AND METHOD FOR CONTROLLING BURSAPHELENCHUS XYLOPHILUS USING SAME” (Industry Foundation of Chonnam National University, priority 2017, dated 2019).

Assay [1] deals with Bursaphelenchus xylophilus. In words: Occurrence of pine wilt disease after trunk injection of induced resistance candidate materials, in vivo test in young red pine trees. The conditions noted are these: red pine tree (Pinus densiflora), 30 days after inoculation; for Occurrence rate of pine wilt disease: Number of pine trees showing wilt symptoms / Number of pine trees used for the test: trunk injection 100 µℓ per tree; for Number of pine trees showing wilt symptoms only at growing points of a stem: trunk injection. As to the method:
By using the 15 types of an induced resistance elicitors which have been known to induce the plant resistance against various diseases as candidates, their controlling effect against pine wilt disease was examined. The control efficacy of candidates against pine wilt disease was analyzed according to an in vivo test using red pine tree (Pinus densiflora) which was 2-year old young pine trees (diameter of 5.5 mm or so, and height of about 35 mm).
As a candidate group of an induced resistance material, two kinds of acibenzolar-S-methyl (ASM), TDL (Tiadinil), ITL (Isotianil), PBZ (Probenzole), AZO (Azoxystrobin), VMA (Validamycin A), MeJA (Methyl jasmonate), BABA (DL-3-aminobutyric acid), 2,3-BDO (2,3-Butanediol), SA (salicyclic acid), GABA (r-Aminobutyric acid), glucan (Glucan), ER (Ergosterol), and AZA (Azelaic acid) were used. Only the use of acibenzolar-S-methyl is according to the invention. Injection of the chemicals was carried out by trunk injection method, i.e., at an angle of 45°, a borehole was created by using an electric drill with thickness of 1.5 mm on a pine stem part that is 5 to 10 cm above the soil surface, a tip (200 µℓ) was inserted to the hole, and, after dissolving the candidate material at concentration level of 200, 20, or 2 µg/mℓ in each solvent, the solution was injected in an amount of 100 µℓ per pine tree. After the injection of the chemical agent, the end part of the tip was sealed with parafilm.
The pine tree wilt nematodes (Bursaphelenchus xylophilus, National Institute of Forest Science (NIFoS), South Korea) was incubated at 25°C by feeding them with Botrytis cinerea, which have been cultured on a potato dextrose agar (PDA) medium, and after one week incubation, they were collected by Baermann funnel method and were adjusted to the level of 20,000 worms/mℓ by examining the number of the worms under an optical microscope. One week after the chemical treatment, the inoculation of the pine tree wilt nematodes was carried out by tree barking inoculation of 100 µℓ, i.e., 2,000 worms, per tree, and the result was determined 30 days after the inoculation. […] [Table 1] Occurrence rate of pine wilt disease in candidate group of induced resistance materials

Another assay relates to PR_5 family. In words: qRT-PCR expression of induced resistance gene in pine tree callus. The conditions noted are these: 200 µg/mℓ, 24 hours. The format is cell-based. As to the method: (§1) For in vitro analysis of induced resistance, the expression of PR genes and other plant defense-related genes was determined, which are evolved in various defense mechanisms including induced resistance. The primers of sixteen induced resistance-related genes of pine tree used in this invention were listed in the below and elongation factor_1 alpha were used as a reference gene. [Table 4] The primer list of defense resistance-related genes
(§2) After the treatment with 200 µg / mℓ of candidates of the selected induced resistance material, expression of the induced resistance-related gene in pine callus was determined by qRT-PCR using the primer pairs of defense resistance-related genes in Table 4. As a candidate group of an induced resistance material in pine tree, acibenzolar-S-methyl (ASM), TDL (Tiadinil), ITL (Isotianil), PBZ (Probenzole), AZO (Azoxystrobin), VMA (Validamycin A), MeJA (Methyl jasmonate), BABA (DL-3-aminobutyric acid), 2,3-BDO (2,3-Butanediol), GABA (r-Aminobutyric acid), glucan (Glucan), ER (Ergosterol), and AZA (Azelaic acid) were used. For the in vitro analysis of the expression of induced resistance gene in pine callus, the selected induced resistance materials were applied with 500 µℓ of LM liquid medium on a surface of pine tree callus (100 mg) in 12-well microplate to give final concentration of 200 µg/mℓ. Then, the callus surface was sufficiently reacted for 24 hours with the candidate of pine tree induced resistance material by shaking at 50 rpm in a 25 °C shaking incubator under dark condition. RNAs were extracted from the callus after completion of the reaction with an induced resistance material, followed by synthesis of cDNAs. Then, by carrying out qRT-PCR, the expression of induced resistance genes was determined. [Table 5] Expression of induced resistance gene in pine tree callus by TDL, PBZ, ASM, ITL, AZO, VMA, glucan, and AZA
(§3) Based on the results of assay using young plants and gene expression by selected induce resistance materials, it seemed that acibenzolar-S-methyl had the most excellent effect. Thus, the following tests were carried out using acibenzolar-S-methyl only. Expression of the induced resistance genes at different culture time after the chemical treatment was examined. For the in vitro assay, LM medium containing pine tree callus was treated with acibenzolar-S-methyl at concentration of 200 µg / mℓ, followed by reaction for 1 day, 7 days, or 14 days in a 25°C shaking incubator under dark condition. RNAs were extracted from the callus after the reaction followed by synthesis of cDNAs. Then, by carrying out qRT-PCR, the expression of the induced resistance genes was determined. Depending on reaction time after the treatment, i.e., after 1 day, 7 days, or 14 days, the expression of the obtained induced resistance genes was examined. As a result of the in vitro callus assay depending on reaction time after the treatment with acibenzolar-S-methyl, the expression of the induced resistance-related genes is the highest at 1 day after the treatment with acibenzolar-S-methyl and gradually diminished over time, as it is shown in Table 7. In this regard, it is contemplated that the expression of genes acquired by acibenzolar-S-methyl is not maintained in highly expressed state until the pathogen invasion and just memorized with at minimum level so that the energy consumption by plant can be efficiently managed. [Table 7] Expression of induced resistance gene in pine tree callus by acibenzolar-S-methyl depending on reaction time
(§4) To have an in vitro assay according to different methods of treatment with acibenzolar-S-methyl, two separate treatment methods, i.e., surface treatment (spraying treatment) of pine tree callus and direct application of the induced resistance material to an LM medium containing pine tree callus, were performed. […]
(In general: In qPCR the cycle at which signal appears reflects the starting amount.)

For the next assay, the system named is PR_3 family class 1. Described as above. Format: cell-based. The conditions noted are these: 200 µg/mℓ, 24 hours. The method, then: as §1, §2, §3, §4
For a further assay, the system named is PR_10 family. The assay is described as above. Format: cell-based. The conditions noted are these: 200 µg/mℓ, 24 hours. As to the method:
as §1, §2, §3, §4

The test system of the next assay is Xyloglucan. The description is as above. Format: cell-based. The conditions noted are these: 200 µg/mℓ, 24 hours. As to the method:
as §1, §2, §3, §4

The next assay has as its system PR_3 family class 4. The description is as above. The conditions noted are these: 200 µg/mℓ, 24 hours. The format is cell-based. As to the method:
as §1, §2, §3, §4

In the next assay the test system is Heat shock 70. The assay is described as above. The format is cell-based. The conditions noted are these: 200 µg/mℓ, 24 hours. As to the method: as §1, §2, §3, §4
A further assay deals with PR_1b family. Described as above. Format: cell-based. The conditions noted are these: 200 µg/mℓ, 24 hours. As to the method: as §1, §2, §3, §4
A further assay concerns PR_9 family. Described as above. Format: cell-based. The conditions noted are these: 200 µg/mℓ, 24 hours. As to the method: as §1, §2, §3, §4

As for `CC(N)CC(=O)O` (racemic) [BABA, DL-3-aminobutyric acid], the figures for the “Occurrence rate of pine wilt disease: Number of pine trees showing wilt symptoms / Number of pine trees used for the test” value in [1] (2 µg/mℓ), in assay [1] (20 µg/mℓ) and in [1] (200 µg/mℓ) were 2/3, 3/3 and 2/3, respectively. The “Number of pine trees showing wilt symptoms only at growing points of a stem” value (from here on “Number … of a stem”) in assay [1] (2 µg/mℓ), in assay [1] (20 µg/mℓ) and in [1] (200 µg/mℓ) was 2 throughout. Also, the “Expression of induced resistance gene, PR_5 family” value (“Expression … PR_5 family” for short) in the assay with PR_5 family was 0.92. Also, the “Expression of induced resistance gene, PR_3 family class 1” value (shortened to “Expression … PR_3 family class 1”) with PR_3 family class 1 amounted to 0.81. Further, the “Expression of induced resistance gene, PR_10 family” value (“Expression … PR_10 family” below) with PR_10 family is recorded as 1.23. Moreover, in the assay on Xyloglucan, the “Expression of induced resistance gene, Xyloglucan” value (shortened to “Expression … Xyloglucan”) was 0.53. Moreover, the “Expression of induced resistance gene, PR_3 family class 4” value (shortened to “Expression … PR_3 family class 4”) in the assay with PR_3 family class 4 was 0.51. Moreover, the “Expression of induced resistance gene, Heat shock 70” value (“Expression … Heat shock 70” below) with Heat shock 70 came out at 0.59. The “Expression of induced resistance gene, PR_1b family” value (“Expression … PR_1b family” below) in the assay on PR_1b family is listed as 0.48. Besides, the “Expression of induced resistance gene, PR_9 family” value (shortened to “Expression … PR_9 family”) in the assay on PR_9 family is listed as 0.43.
Turning to `CC(O)C(C)O` (stereo not drawn) [2,3-BDO, 2,3-Butanediol], the “Occurrence rate of pine wilt disease: Number of pine trees showing wilt symptoms / Number of pine trees used for the test” value in [1] (2 µg/mℓ) is given as 2/3; in assay [1] (20 µg/mℓ), 3/3; in assay [1] (200 µg/mℓ) it was 1/3. Moreover, the “Number … of a stem” value in assay [1] (2 µg/mℓ) turned out to be 2; in assay [1] (20 µg/mℓ), 1; in assay [1] (200 µg/mℓ), 1. Moreover, in the assay on PR_5 family, the “Expression … PR_5 family” value came to 1.13. The “Expression … PR_3 family class 1” value in the assay on PR_3 family class 1 is 2.78. For the same compound, the “Expression … PR_10 family” value in the assay on PR_10 family is given as 0.86. Besides, in the assay on Xyloglucan, the “Expression … Xyloglucan” value is recorded as 1.13. In addition, the “Expression … PR_3 family class 4” value with PR_3 family class 4 is 0.33. In the assay on Heat shock 70, the “Expression … Heat shock 70” value stood at 1.29. In addition, the “Expression … PR_1b family” value with PR_1b family was determined as 4.36. In addition, the “Expression … PR_9 family” value with PR_9 family is given as 1.22.
In the case of `O=C(O)CCCCCCCC(=O)O` [AZA, Azelaic acid], the “Occurrence rate of pine wilt disease: Number of pine trees showing wilt symptoms / Number of pine trees used for the test” value in assay [1] (2 µg/mℓ), in assay [1] (20 µg/mℓ) and in assay [1] (200 µg/mℓ) was 2/3 in each case. The entries for the “Number … of a stem” value in assay [1] (20 µg/mℓ) and in assay [1] (200 µg/mℓ) were 1 and 2, respectively. Moreover, the “Expression … PR_5 family” value in the assay on PR_5 family was 1.45. The “Expression … PR_3 family class 1” value in the assay with PR_3 family class 1 is 1.12. Also, the “Expression … PR_10 family” value in the assay with PR_10 family is 1.16. For the same compound, the “Expression … Xyloglucan” value in the assay with Xyloglucan amounted to 0.76. Also, the “Expression … PR_3 family class 4” value with PR_3 family class 4 was 1.16. For the same compound, in the assay with Heat shock 70, the “Expression … Heat shock 70” value is 1.42. In the assay on PR_1b family, the “Expression … PR_1b family” value was 1.15. Also, the “Expression … PR_9 family” value in the assay on PR_9 family came to 1.27.
Take `CO/C=C(/C(=O)OC)c1ccccc1Oc1cc(Oc2ccccc2C#N)ncn1` [AZO, Azoxystrobin]: the “Occurrence rate of pine wilt disease: Number of pine trees showing wilt symptoms / Number of pine trees used for the test” value in assay [1] (2 µg/mℓ) is on record as 0/3; in assay [1] (20 µg/mℓ), 2/2; in assay [1] (200 µg/mℓ), 2/3. The “Number … of a stem” value in [1] (20 µg/mℓ) was 1; in [1] (200 µg/mℓ), 2. For the same compound, the “Expression … PR_5 family” value in the assay with PR_5 family is 1.52. The “Expression … PR_3 family class 1” value in the assay with PR_3 family class 1 was 1.11. In the assay on PR_10 family, the “Expression … PR_10 family” value was found to be 1.4. Also, the “Expression … Xyloglucan” value in the assay with Xyloglucan is 1.93. Also, the “Expression … PR_3 family class 4” value in the assay on PR_3 family class 4 came out at 1.01. Besides, the “Expression … Heat shock 70” value in the assay with Heat shock 70 was 0.38. In addition, the “Expression … PR_1b family” value in the assay on PR_1b family amounted to 1.66. Further, the “Expression … PR_9 family” value in the assay on PR_9 family is 1.92.
Regarding `CC(C)[C@@H](C)/C=C/[C@@H](C)[C@H]1CC[C@H]2C3=CC=C4C[C@@H](O)CC[C@]4(C)[C@H]3CC[C@]12C` [ER, Ergosterol], the “Occurrence rate of pine wilt disease: Number of pine trees showing wilt symptoms / Number of pine trees used for the test” value is on record as 3/3 in assay [1] (2 µg/mℓ), 0/3 in assay [1] (20 µg/mℓ) and 1/3 in assay [1] (200 µg/mℓ). In addition, the “Number … of a stem” value in assay [1] (2 µg/mℓ) is 1. Moreover, in the assay with PR_5 family, the “Expression … PR_5 family” value is listed as 1.05. Besides, the “Expression … PR_3 family class 1” value with PR_3 family class 1 is on record as 1.06. Moreover, in the assay on PR_10 family, the “Expression … PR_10 family” value was 1.21. In addition, the “Expression … Xyloglucan” value with Xyloglucan amounted to 1.05. In the assay on PR_3 family class 4, the “Expression … PR_3 family class 4” value was 0.81. Besides, the “Expression … Heat shock 70” value in the assay with Heat shock 70 was determined as 1.91. Further, the “Expression … PR_1b family” value with PR_1b family was 1.14. In addition, the “Expression … PR_9 family” value with PR_9 family stood at 1.35.
